Results published in US20190225650A1, “PEPTIDOMIMETIC MACROCYCLES AND USE THEREOF IN REGULATING HIF1ALPHA” (AILERON THERAPEUTICS, INC., priority 2013, published 2019).
Bridge positions count the residues as written; N and C are the ends. Square brackets hold non-standard residues; d marks the D form. Peptide text beside a SMILES is read from it. S5 = C=CCCC[C@](C)(N)C(=O)O; Nle = CCCC[C@H](N)C(=O)O

What was measured:
[1] = target: T1, flag-tagged HIF1α (AA 786-826) / His6-tagged p300 (AA 323-423) complex (Homo sapiens, UniProt Q09472); test: HIF1α p300 displacement assay (TR FRET, +CHAPS); format: binding; settings: read-out: IC50 (nM) (HIF1α_p300 Displacement + CHAPS)
T1 construct: His6-tagged p300 (AA 323-423); made in house; host or cells: E. coli (pETDuet vector)
How it was run: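 In this TR-FRET displacement format, peptides compete HIF1α C-terminal transactivation domain off p300-CH. They were preincubated 1 h at room temperature with 300 nM complex in HEPES pH 7.4/NaCl buffer with 7.5 mM CHAPS and 1 mM DTT. Anti-His-D2 (4 nM) and anti-Flag-K (0.5 μM) followed for 2 h, and a one-site fit of the fluorescence ratio gave IC50.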

[2] = tested on: HRE-bla ME-180 cells; test: Reporter gene assay (HRE-bla ME-180 HIF reporter, GeneBLAzer); format: cell-based, human; settings: for EC50: 24 hour normoxia
How it was run: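 A FRET β-lactamase readout of HIF transcription was used. After compound treatment in 0.3% DMSO/media under normoxic conditions, 20 μl of 6× LiveBLAzer-FRET B/G (CCF4-AM) substrate was added. Plates sat 3 hr at room temperature in the dark and were read at 409 Ex/460Em and 409Ex/530Em on a Synergy 2. Inhibition was compared against DMSO vehicle controls, with chetomin as positive control.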

[3] = tested on: HRE-bla ME-180 cells; test: Cell proliferation assay (viability, MTT, 1% FBS); format: cell-based, human
How it was run: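 Viable cell number was measured with the CellTiter 96 (MTT) kit after compounds were applied for a 16 h normoxic (21% O2) pretreatment, followed by further normoxic or hypoxic (1% O2) culture. Cells: 2×10^4 ME-180 per well, Opti-MEM + 1% FBS, 0.5% DMSO vehicle.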

Structure (SMILES)	IC50 [1] [nM]	EC50 [2] [µM]	18 h Avg % max inhibition at top conc (HIF Rptr-24 hrs normoxia) (μM) [2]	Viability 1% FBS AVG (MTT V3-24 hr Normoxia) (μM) [3]
CC[C@H](C)[C@H](NC(=O)[C@H](Cc1ccccc1)NC(C)=O)C(=O)N[C@@H](CC(=O)O)C(=O)N[C@@H](CCC(=O)O)C(=O)N[C@@]1(C)CCCC=CCCC[C@@](C)(C(=O)N[C@@H](CC(C)C)C(=O)N[C@H](C(=O)N[C@H](C(=O)N[C@@H](CCC(=O)O)C(=O)N[C@@H](CCSC)C(=O)NCC(=O)N[C@@H](CC(C)C)C(=O)N[C@@H](CC(=O)O)C(=O)N[C@@H](CCCNC(=N)N)C(=O)N[C@H](C(=O)N[C@@H](CCCCN)C(=O)N[C@@H](CCC(=O)O)C(=O)N[C@@H](CC(C)C)C(=O)N2CCC[C@H]2C(=O)N[C@@H](CCC(=O)O)C(=O)N[C@@H](CC(C)C)C(=O)N[C@@H](Cc2c[nH]c3ccccc23)C(=O)N[C@@H](CC(C)C)C(N)=O)[C@@H](C)CC)[C@@H](C)CC)C(C)C)NC(=O)[C@H](CCSC)NC(=O)[C@H](CC(C)C)NC(=O)[C@H](C(C)C)NC1=O [SP-104] (Ac-FIDE[S5]VLM[S5]LVIEMGLDRIKELPELWL-NH2; staple 5-9)	200 to 400	5 to 15	++++ (≥50: ++++)	++++ (≥30: ++++)
CC[C@H](C)[C@H](NC(=O)[C@H](CCCNC(=N)N)NC(=O)[C@H](CC(=O)O)NC(=O)[C@H](CC(C)C)NC(=O)[C@H](C)NC(=O)[C@H](CCSC)NC(=O)[C@H](CCC(=O)O)NC(=O)[C@@H](NC(=O)[C@@H](NC(=O)[C@H](CC(C)C)NC(=O)[C@]1(C)CCCC=CCCC[C@](C)(NC(=O)[C@H](CCC(=O)O)NC(=O)[C@H](CC(=O)O)NC(=O)[C@@H](NC(=O)[C@H](Cc2ccccc2)NC(C)=O)[C@@H](C)CC)C(=O)N[C@@H](C(C)C)C(=O)N[C@@H](CC(C)C)C(=O)N[C@@H](CCSC)C(=O)N1)C(C)C)[C@@H](C)CC)C(N)=O [SP-108] (Ac-FIDE[S5]VLM[S5]LVIEMALDRI-NH2; staple 5-9)	≤ 200	> 30	++ (≤10 but <25: ++)	++++ (≥30: ++++)
CCCC[C@H](NC(=O)[C@H](CCC(=O)O)NC(=O)[C@@H](NC(=O)[C@@H](NC(=O)[C@H](CC(C)C)NC(=O)[C@]1(C)CCCC=CCCC[C@](C)(NC(=O)[C@H](CCC(=O)O)NC(=O)[C@H](CC(=O)O)NC(=O)[C@@H](NC(=O)[C@H](Cc2ccccc2)NC(C)=O)[C@@H](C)CC)C(=O)N[C@@H](C(C)C)C(=O)N[C@@H](CC(C)C)C(=O)N[C@@H](CCCC)C(=O)N1)C(C)C)[C@@H](C)CC)C(=O)N[C@@H](C)C(=O)N[C@@H](CC(C)C)C(=O)N[C@@H](CC(=O)O)C(=O)N[C@@H](CCCNC(=N)N)C(=O)N[C@H](C(N)=O)[C@@H](C)CC [SP-109] (Ac-FIDE[S5]VL[Nle][S5]LVIE[Nle]ALDRI-NH2; staple 5-9)	200 to 400	> 30	+ (<10: +)	++ (≤5 but <15: ++)
CC[C@H](C)[C@H](NC(=O)[C@H](Cc1ccccc1)NC(C)=O)C(=O)N[C@@H](CC(=O)O)C(=O)N[C@@H](CCC(=O)O)C(=O)N[C@@]1(C)CCCC=CCCC[C@@](C)(C(=O)N[C@@H](CC(C)C)C(=O)N[C@H](C(=O)N[C@H](C(=O)N[C@@H](CCC(=O)O)C(=O)N[C@@H](CCSC)C(=O)N[C@@H](C)C(=O)N[C@@H](CC(C)C)C(N)=O)[C@@H](C)CC)C(C)C)NC(=O)[C@H](CCSC)NC(=O)[C@H](CC(C)C)NC(=O)[C@H](C(C)C)NC1=O [SP-110] (Ac-FIDE[S5]VLM[S5]LVIEMAL-NH2; staple 5-9)	400 to 700	> 30	+++ (≤25 but <50: +++)	++++ (≥30: ++++)
CCCC[C@H](NC(=O)[C@H](CCC(=O)O)NC(=O)[C@@H](NC(=O)[C@@H](NC(=O)[C@H](CC(C)C)NC(=O)[C@]1(C)CCCC=CCCC[C@](C)(NC(=O)[C@H](CCC(=O)O)NC(=O)[C@H](CC(=O)O)NC(=O)[C@@H](NC(=O)[C@H](Cc2ccccc2)NC(C)=O)[C@@H](C)CC)C(=O)N[C@@H](C(C)C)C(=O)N[C@@H](CC(C)C)C(=O)N[C@@H](CCCC)C(=O)N1)C(C)C)[C@@H](C)CC)C(=O)N[C@@H](C)C(=O)N[C@@H](CC(C)C)C(N)=O [SP-111] (Ac-FIDE[S5]VL[Nle][S5]LVIE[Nle]AL-NH2; staple 5-9)	200 to 400	> 30	++++ (≥50: ++++)	++++ (≥30: ++++)
CC[C@H](C)[C@H](NC(=O)[C@H](Cc1ccccc1)NC(C)=O)C(=O)N[C@@H](CC(=O)O)C(=O)N[C@@H](CCC(=O)O)C(=O)N[C@@]1(C)CCCC=CCCC[C@@](C)(C(=O)N[C@@H](CC(C)C)C(=O)N[C@H](C(=O)N[C@H](C(=O)N[C@@H](CCC(=O)O)C(=O)N[C@@H](CCSC)C(=O)N[C@@H](C)C(=O)N[C@@H](C)C(=O)N[C@@H](C)C(N)=O)[C@@H](C)CC)C(C)C)NC(=O)[C@H](CCSC)NC(=O)[C@H](CC(C)C)NC(=O)[C@H](C(C)C)NC1=O [SP-117] (Ac-FIDE[S5]VLM[S5]LVIEMAAA-NH2; staple 5-9)	> 700	> 30	+++ (≤25 but <50: +++)	++++ (≥30: ++++)

The next lines start with results.

IC50 [1] [nM]	EC50 [2] [µM]	Structure (SMILES)	18 h Avg % max inhibition at top conc (HIF Rptr-24 hrs normoxia) (μM) [2]	Viability 1% FBS AVG (MTT V3-24 hr Normoxia) (μM) [3]
≤ 200	5 to 15	CC[C@H](C)[C@H](NC(=O)[C@H](Cc1ccccc1)NC(C)=O)C(=O)N[C@@H](CC(=O)O)C(=O)N[C@@H](CCC(=O)O)C(=O)N[C@@]1(C)CCCC=CCCC[C@@](C)(C(=O)N[C@@H](CC(C)C)C(=O)N[C@H](C(=O)N[C@H](C(=O)N[C@@H](CCC(=O)O)C(=O)N[C@@H](CCSC)C(=O)N[C@@H](C)C(=O)N[C@@H](CC(C)C)C(=O)N[C@@H](CC(=O)O)C(=O)N[C@@H](CCCNC(=N)N)C(=O)N[C@H](C(=O)N[C@@H](CCCCN)C(=O)N[C@@H](CCC(=O)O)C(=O)N[C@@H](CC(C)C)C(=O)N2CCC[C@H]2C(=O)N[C@@H](CCC(=O)O)C(=O)N[C@@H](CC(C)C)C(=O)N[C@@H](Cc2c[nH]c3ccccc23)C(=O)N[C@@H](CC(C)C)C(N)=O)[C@@H](C)CC)[C@@H](C)CC)C(C)C)NC(=O)[C@H](C)NC(=O)[C@H](CC(C)C)NC(=O)[C@H](C(C)C)NC1=O [SP-112] (Ac-FIDE[S5]VLA[S5]LVIEMALDRIKELPELWL-NH2; staple 5-9)	+++ (≤25 but <50: +++)	++++ (≥30: ++++)
400 to 700	5 to 15	CC[C@H](C)[C@H](NC(=O)[C@H](CCCNC(=N)N)NC(=O)[C@H](CC(=O)O)NC(=O)[C@H](CC(C)C)NC(=O)[C@H](C)NC(=O)[C@H](CCSC)NC(=O)[C@H](CCC(=O)O)NC(=O)[C@@H](NC(=O)[C@@H](NC(=O)[C@H](CC(C)C)NC(=O)[C@]1(C)CCCC=CCCC[C@](C)(NC(=O)[C@H](CCC(=O)O)NC(=O)[C@H](CC(=O)O)NC(=O)[C@@H](NC(=O)[C@H](Cc2ccccc2)NC(C)=O)[C@@H](C)CC)C(=O)N[C@@H](C(C)C)C(=O)N[C@@H](CC(C)C)C(=O)N[C@@H](CCSC)C(=O)N1)C(C)C)[C@@H](C)CC)C(=O)N[C@@H](CCCCN)C(=O)N[C@@H](CCC(=O)O)C(N)=O [SP-113] (Ac-FIDE[S5]VLM[S5]LVIEMALDRIKE-NH2; staple 5-9)	++++ (≥50: ++++)	++++ (≥30: ++++)
> 700	> 30	CC[C@H](C)[C@H](NC(=O)[C@H](Cc1ccccc1)NC(C)=O)C(=O)N[C@@H](CC(=O)O)C(=O)N[C@@H](CCC(=O)O)C(=O)N[C@@]1(C)CCCC=CCCC[C@@](C)(C(=O)N[C@@H](CC(C)C)C(=O)N[C@H](C(=O)N[C@H](C(=O)N[C@@H](CCC(=O)O)C(=O)N[C@@H](CCSC)C(=O)N[C@@H](C)C(=O)N[C@@H](C)C(N)=O)[C@@H](C)CC)C(C)C)NC(=O)[C@H](CCSC)NC(=O)[C@H](CC(C)C)NC(=O)[C@H](C(C)C)NC1=O [SP-116] (Ac-FIDE[S5]VLM[S5]LVIEMAA-NH2; staple 5-9)	+++ (≤25 but <50: +++)	++++ (≥30: ++++)
> 700	–	CCCC[C@H](NC(=O)[C@H](CCC(=O)O)NC(=O)[C@@H](NC(=O)[C@@H](NC(=O)[C@H](CC(C)C)NC(=O)[C@]1(C)CCCC=CCCC[C@](C)(NC(=O)[C@H](CCC(=O)O)NC(=O)[C@H](CC(=O)O)NC(=O)[C@@H](NC(=O)[C@H](CC(N)=O)NC(=O)[C@@H](NC(=O)[C@H](CCC(N)=O)NC(=O)[C@H](CC(=O)O)NC(=O)[C@H](CC(C)C)NC(=O)[C@]2(C)CCCC=CCCC[C@](C)(NC(=O)[C@H](CCC(=O)O)NC(=O)CNC(=O)[C@H](CCC(N)=O)NC(=O)[C@H](CC(C)C)NC(=O)[C@H](CC(C)C)NC(C)=O)C(=O)N[C@@H](CC(C)C)C(=O)N[C@@H](CC(C)C)C(=O)N[C@@H](CCCNC(=N)N)C(=O)N2)C(C)C)[C@@H](C)CC)C(=O)N[C@@H](C(C)C)C(=O)N[C@@H](CC(C)C)C(=O)N[C@@H](CCCC)C(=O)N1)C(C)C)[C@@H](C)CC)C(=O)NCC(N)=O [SP-326] (Ac-LLQGE[S5]LLR[S5]LDQVNIDE[S5]VL[Nle][S5]LVIE[Nle]G-NH2; staple 6-10, 19-23)	–	++++ (≥30: ++++)
